Laboratory results as given in patent publication US20200061062A1, “INHIBITORS OF HUMAN PHOSPHATIDYLINOSITOL 3-KINASE DELTA” (ICOS Corporation, priority 2000, published 2020).
Like-named read-outs stand apart in the source and are kept apart here.

Columns and labels:
PI3Kα = molecular target: T1, PI3Kα (Homo sapiens, UniProt P42336); test: Biochemical assay of PI3K potency and selectivity using 20 μM ATP, Alpha; conditions: for Alpha/Delta Ratio: ratio of IC50 values, > = hypothetical ratio with 100 μM substituted for the missing IC50; for remaining activity at 100 µM: read-out: percent activity remaining at 100 μM, 20 μM ATP, 100 μM compound did not inhibit by at least 50%
T1 construct: His tag (pFastbac HTb vector) (N); FLAG; made in house; host or cells: Sf21 insect cells (baculovirus)
T1 sequence (P42336 whole entry): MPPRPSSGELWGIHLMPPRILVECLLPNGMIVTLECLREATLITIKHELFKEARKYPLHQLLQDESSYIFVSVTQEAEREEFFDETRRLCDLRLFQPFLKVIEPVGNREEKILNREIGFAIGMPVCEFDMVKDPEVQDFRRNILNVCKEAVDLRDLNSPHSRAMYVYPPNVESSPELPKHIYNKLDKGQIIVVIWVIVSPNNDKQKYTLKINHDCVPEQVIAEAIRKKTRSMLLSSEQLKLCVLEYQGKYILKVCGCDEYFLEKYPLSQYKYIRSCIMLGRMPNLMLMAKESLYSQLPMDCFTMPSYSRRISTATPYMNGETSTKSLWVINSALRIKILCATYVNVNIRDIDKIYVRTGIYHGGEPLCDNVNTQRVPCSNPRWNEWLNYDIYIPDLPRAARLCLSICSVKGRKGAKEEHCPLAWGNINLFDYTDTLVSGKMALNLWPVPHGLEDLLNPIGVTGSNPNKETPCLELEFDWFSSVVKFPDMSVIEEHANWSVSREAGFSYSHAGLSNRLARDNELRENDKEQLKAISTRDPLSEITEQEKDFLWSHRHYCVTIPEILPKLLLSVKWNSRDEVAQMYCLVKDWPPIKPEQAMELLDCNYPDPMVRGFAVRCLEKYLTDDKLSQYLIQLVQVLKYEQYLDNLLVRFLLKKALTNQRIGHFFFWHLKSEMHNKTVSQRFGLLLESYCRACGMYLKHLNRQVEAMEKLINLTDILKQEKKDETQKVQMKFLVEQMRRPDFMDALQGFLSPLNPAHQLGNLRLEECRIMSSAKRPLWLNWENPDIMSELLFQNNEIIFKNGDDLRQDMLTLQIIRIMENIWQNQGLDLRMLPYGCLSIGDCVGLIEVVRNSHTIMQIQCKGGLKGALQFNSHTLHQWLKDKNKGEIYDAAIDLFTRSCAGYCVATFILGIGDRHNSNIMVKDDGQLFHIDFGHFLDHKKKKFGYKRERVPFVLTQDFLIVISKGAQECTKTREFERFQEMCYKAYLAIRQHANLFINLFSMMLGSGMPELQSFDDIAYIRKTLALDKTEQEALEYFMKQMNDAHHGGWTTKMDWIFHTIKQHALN
T1 sequence (P27986 whole entry partner): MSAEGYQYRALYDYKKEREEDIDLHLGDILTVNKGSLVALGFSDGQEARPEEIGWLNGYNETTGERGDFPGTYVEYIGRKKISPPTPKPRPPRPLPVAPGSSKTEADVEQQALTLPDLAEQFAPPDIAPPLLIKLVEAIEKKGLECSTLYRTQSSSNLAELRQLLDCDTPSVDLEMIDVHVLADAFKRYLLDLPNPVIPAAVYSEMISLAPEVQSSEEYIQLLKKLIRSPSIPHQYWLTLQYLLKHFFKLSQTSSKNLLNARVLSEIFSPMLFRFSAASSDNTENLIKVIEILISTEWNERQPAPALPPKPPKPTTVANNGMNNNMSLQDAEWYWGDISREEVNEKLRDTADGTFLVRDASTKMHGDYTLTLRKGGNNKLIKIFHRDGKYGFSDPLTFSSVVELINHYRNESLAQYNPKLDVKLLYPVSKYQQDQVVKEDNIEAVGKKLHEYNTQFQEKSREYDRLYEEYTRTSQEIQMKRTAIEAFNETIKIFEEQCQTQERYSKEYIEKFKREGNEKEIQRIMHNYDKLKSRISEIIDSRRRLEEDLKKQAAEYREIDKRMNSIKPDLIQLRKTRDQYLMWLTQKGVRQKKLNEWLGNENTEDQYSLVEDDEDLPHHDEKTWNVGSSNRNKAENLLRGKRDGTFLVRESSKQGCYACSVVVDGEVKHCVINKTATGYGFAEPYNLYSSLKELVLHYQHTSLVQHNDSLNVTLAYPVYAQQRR
How it was run: (§1)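 Radioactive phosphate transfer from γ-[32P]ATP onto PIP2/PS liposomes was measured in 20 mM HEPES, pH 7.4, at 20 μM ATP. The 3× substrate stock contained […] and 6 μM PIP2/PS.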

PI3Kβ = molecular target: T2, PI3Kβ (Homo sapiens, UniProt P42338); test: Biochemical assay of PI3K potency and selectivity using 20 μM ATP, Beta; conditions: for Beta/Delta Ratio / remaining activity at 100 µM: 20 μM ATP; for Beta/Delta Ratio: ratio of IC50 values, > = hypothetical ratio with 100 μM substituted for the missing IC50; for remaining activity at 100 µM: read-out: Beta: percent activity remaining at 100 μM, 100 μM compound did not inhibit by at least 50%
T2 construct: His tag (pFastbac HTa vector) (N); FLAG (N); made in house; host or cells: Sf21 insect cells (baculovirus)
T2 sequence (P42338 whole entry): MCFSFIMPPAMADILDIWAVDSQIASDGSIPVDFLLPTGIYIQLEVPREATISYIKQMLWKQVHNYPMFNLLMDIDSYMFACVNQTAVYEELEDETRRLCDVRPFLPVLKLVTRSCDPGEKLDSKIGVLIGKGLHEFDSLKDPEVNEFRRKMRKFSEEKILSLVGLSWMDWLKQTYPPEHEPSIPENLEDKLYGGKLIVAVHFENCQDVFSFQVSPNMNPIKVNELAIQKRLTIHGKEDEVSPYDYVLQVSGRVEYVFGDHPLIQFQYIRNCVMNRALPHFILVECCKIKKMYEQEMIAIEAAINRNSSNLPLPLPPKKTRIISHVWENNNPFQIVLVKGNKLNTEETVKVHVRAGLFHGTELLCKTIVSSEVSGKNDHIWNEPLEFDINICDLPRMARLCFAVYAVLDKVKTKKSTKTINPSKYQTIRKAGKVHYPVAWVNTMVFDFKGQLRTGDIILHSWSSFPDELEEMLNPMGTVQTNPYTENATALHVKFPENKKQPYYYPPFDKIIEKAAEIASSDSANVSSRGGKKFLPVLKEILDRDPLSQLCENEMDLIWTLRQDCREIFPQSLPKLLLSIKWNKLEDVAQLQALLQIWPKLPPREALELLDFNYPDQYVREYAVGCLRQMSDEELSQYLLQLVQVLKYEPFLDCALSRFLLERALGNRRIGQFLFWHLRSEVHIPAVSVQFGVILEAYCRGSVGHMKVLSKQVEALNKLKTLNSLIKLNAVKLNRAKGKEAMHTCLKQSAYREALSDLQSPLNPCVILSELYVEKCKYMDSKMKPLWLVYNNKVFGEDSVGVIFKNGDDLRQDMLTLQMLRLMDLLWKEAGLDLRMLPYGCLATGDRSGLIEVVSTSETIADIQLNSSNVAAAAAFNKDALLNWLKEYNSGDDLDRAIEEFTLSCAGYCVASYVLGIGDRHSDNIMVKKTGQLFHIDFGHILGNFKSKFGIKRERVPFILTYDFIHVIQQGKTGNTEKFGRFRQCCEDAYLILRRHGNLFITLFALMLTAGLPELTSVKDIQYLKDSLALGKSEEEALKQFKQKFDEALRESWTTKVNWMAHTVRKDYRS
T2 sequence (P27986 whole entry partner): as the sequence (P27986 whole entry partner) above
How it was run: as §1

human B cells = test: Antibody production by human B cells (IgG and IgM ELISA); type: cell-based; conditions: B-cell, IL-2 and PANSORBIN stimulation
Description: Heparinized blood (200 mL) from healthy volunteers was mixed with an equal volume of D-PBS, layered on 10×10 mL FICOLL-PAQUE® (Pharmacia), and centrifuged at 1600 rpm for 30 min at room temperature. Peripheral blood mononuclear cells (PBMC) were collected from the FICOLL®/serum interface, overlayed on 10 mL fetal bovine serum (FBS) and centrifuged at 800 rpm for 10 min to remove platelets. After washing, cells were incubated with DYNAL® Antibody Mix (B cell kit) (Dynal Corp., Lake Success, N.Y.) for 20 min at 4-8° C. Following the removal of unbound antibody, PBL were mixed with anti-mouse IgG coated magnetic beads (Dynal) for 20 min at 4-8° C. with gentle shaking followed by elimination of labeled non-B cells on the magnetic bead separator. This procedure was repeated once more. The B cells were resuspended in RPMI-1640 with 10% FBS, and kept on ice until further use.
To study antibody production, B cells were aliquoted at 50-75×10^3 cells/well into 96-well plate with or without inhibitor, to which IL-2 (100 U/mL) and PANSORBIN® (Calbiochem) Staphylococcus aureus cells (1:90,000) were added. […] Samples from each condition (in triplicate) were removed, and analyzed for IgG and IgM, as measured by ELISA. […] Color development was stopped by H2SO4 solution, and plates were read on an ELISA plate reader.

RWLeu4 = test: Cancer cell proliferation, [3H]-thymidine incorporation, RWLeu4; type: cell-based; conditions: Homo sapiens, 120 h; RWLeu4 line; five days; read-out: EC50, inhibition of cell growth
Description: (§2) The effect of compounds of the invention on cancer cell proliferation was evaluated by testing one of the compounds against a panel of Chronic Myeloid Leukemia (CML) cell lines, including KU812, RWLeu4, K562, and MEG-01.
(§3) The inhibitory activity of the compound (D-000, dissolved in DMSO) was determined as follows. The tested compound was added in a series of concentrations (0.001 μM to 20 μM) to 96-well microtiter plates with cells (1000 to 5000 cells/well). Plates were incubated for five days at 37° C. during which the control cultures without test compound were able to undergo at least two cell-division cycles. Cell growth was measured by incorporation of [^3H]-thymidine for eighteen hours added at days three, four, and five. Cells were transferred to a filter, washed and the radioactivity counted using a Matrix 96 beta counter (Packard). The percentage of cell growth was measured as follows: […]

MEG-01 = test: Cancer cell proliferation, [3H]-thymidine incorporation, MEG-01; type: cell-based; conditions: MEG-01 line; 0.001 μM to 20 μM
Description: as §2, §3

PI3Kδ [1] = molecular target: T3, PI3Kδ (Homo sapiens, UniProt O00329, S253N); test: Biochemical assay using 200 μM ATP, Delta;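 also: radiometric filter-binding assay: PI3Kδ transfers ³²P from γ-[³²P]ATP onto PIP2/PS liposomes, counted by scintillation, enzyme-only wells as positive control, no-enzyme wells as background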
T3 sequence (O00329 whole entry S253N): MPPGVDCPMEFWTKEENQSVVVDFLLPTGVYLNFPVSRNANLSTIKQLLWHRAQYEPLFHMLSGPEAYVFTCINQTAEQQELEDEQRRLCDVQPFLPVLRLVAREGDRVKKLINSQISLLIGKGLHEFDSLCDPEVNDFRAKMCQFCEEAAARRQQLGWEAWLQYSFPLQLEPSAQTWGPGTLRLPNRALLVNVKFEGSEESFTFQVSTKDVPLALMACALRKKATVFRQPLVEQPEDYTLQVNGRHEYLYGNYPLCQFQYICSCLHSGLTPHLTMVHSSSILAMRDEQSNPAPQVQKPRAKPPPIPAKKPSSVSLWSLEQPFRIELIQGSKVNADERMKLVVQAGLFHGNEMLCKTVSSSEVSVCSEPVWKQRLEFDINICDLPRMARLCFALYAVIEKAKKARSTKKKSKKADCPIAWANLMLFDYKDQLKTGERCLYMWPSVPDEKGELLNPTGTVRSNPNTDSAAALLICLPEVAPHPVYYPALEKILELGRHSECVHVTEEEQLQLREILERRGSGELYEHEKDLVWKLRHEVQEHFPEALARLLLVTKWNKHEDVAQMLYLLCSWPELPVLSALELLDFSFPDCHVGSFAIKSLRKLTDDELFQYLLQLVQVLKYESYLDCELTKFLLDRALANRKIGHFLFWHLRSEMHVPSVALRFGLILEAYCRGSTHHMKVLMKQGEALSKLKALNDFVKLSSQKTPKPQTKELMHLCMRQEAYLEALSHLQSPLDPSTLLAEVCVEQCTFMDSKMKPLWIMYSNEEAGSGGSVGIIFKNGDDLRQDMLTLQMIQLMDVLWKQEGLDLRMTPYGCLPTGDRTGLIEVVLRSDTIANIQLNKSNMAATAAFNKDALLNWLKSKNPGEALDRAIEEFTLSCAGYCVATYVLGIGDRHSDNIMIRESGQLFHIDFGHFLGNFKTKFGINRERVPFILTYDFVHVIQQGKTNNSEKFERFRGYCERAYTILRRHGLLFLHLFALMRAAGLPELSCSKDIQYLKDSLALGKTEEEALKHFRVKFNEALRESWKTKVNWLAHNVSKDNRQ
T3 sequence (P27986 whole entry partner): as the sequence (P27986 whole entry partner) above
Description: PI3Kδ catalyzes a phosphotransfer from γ-[^32P]ATP to PIP2/PS liposomes at the D3′ position of the PIP2 lipid inositol ring. This reaction is MgCl2 dependent and is quenched in high molarity potassium phosphate buffer pH 8.0 containing 30 mM EDTA. […] The reaction products (and all unlabelled products) are transferred to a 96-well, prewetted PVDF filter plate, filtered, and washed in high molarity potassium phosphate. Scintillant is added to the dried wells and the incorporated radioactivity is quantitated.
This dilution established a final concentration of 200 μM ATP in the reaction volume. The reaction was stopped with 150 μL quench buffer (1.0 M potassium phosphate pH 8.0, 30 mM EDTA). A portion of the quenched solution (180 μL) was then transferred to a PVDF filter plate (Millipore # MAIP NOB prewetted with sequential 200 μL washes of 100% methanol, water, and finally 1.0 M potassium phosphate pH 8.0 wash buffer).
The PVDF filter plate was aspirated under moderate vacuum (2-5 mm Hg), washed with 5×200 μL of wash buffer, and then dried by aspiration. The filter was subsequently blotted, allowed to air dry completely, and inserted into a Wallac counting cassette with 50 μL of Ecoscint scintillation cocktail added per well.
Subsequent selectivity assays were done similarly using the same 3× substrate stocks except they contained 0.05 mCi/mL γ[^32P]ATP and 3 mM PIP2. Subsequent selectivity assays also used the same 3× enzyme stocks, except they now contained 3 nM of any given PI3K isoform.
For all selectivity assays, the test compounds were weighed out and dissolved into 10-50 mM stocks in 100% DMSO (depending on their respective solubilities) and stored at −20° C. […] From these dilutions, 20 μL was added into the assay wells alongside water blanks used for the enzyme (positive) control and the no enzyme (background) control.
This selectivity protocol is identical to that described above, except the 3× stock ATP concentration was 600 μM.

PI3Kδ [2] = molecular target: T3, PI3Kδ; test: Biochemical assay of PI3K potency and selectivity using 20 μM ATP, Delta; set-up: His tag (pFastbac HTb vector) (N); FLAG; made in house; host or cells: Sf21 insect cells (baculovirus)
How it was run: as §1

[3] = 20 μM ATP, read-out: Delta IC50

Structure (SMILES)	Alpha/Delta Ratio (PI3Kα; 20 μM ATP)	IC50 (PI3Kα; Example 2 assay conditions, limit of 100 μM compound, read-out: IC50, α isoform of PI3K (FIG. 1)) [nM]	remaining activity at 100 µM (PI3Kα) [%]	Beta/Delta Ratio (PI3Kβ)	IC50 (PI3Kβ; Example 2 assay conditions, limit of 100 μM compound, read-out: IC50, β isoform of PI3K (FIG. 1)) [nM]	remaining activity at 100 µM (PI3Kβ) [%]	IC50 (human B cells; FIG. 7, read-out: Half-maximal inhibition of IgG production) [nM]	IC50 (human B cells; FIG. 7, read-out: Half-maximal inhibition of IgM production) [nM]	EC50 (RWLeu4) [nM]	Effect on cell growth (MEG-01)	IC50 (PI3Kδ [1]) [nM]	IC50 (PI3Kδ [2]; [3]) [nM]	IC50 (PI3Kδ [2]; Example 2 assay conditions, read-out: IC50, δ isoform of PI3K (FIG. 1)) [nM]	melting point	IC50 (PI3Kα; 20 μM ATP, read-out: Alpha IC50) [nM]
O=c1c2ccccc2nc(CSc2ncnc3[nH]cnc23)n1-c1ccccc1Cl [Compound D-000, 3-(2-chlorophenyl)-2-(9H-purin-6-ylsulfanylmethyl)-3H-quinazolin-4-one]	>302	> 100000	86	>302	> 100000	74	~7000	~1000	~2000	not found to exhibit an effect	2000 ± 1000	330	~300	–	–
O=c1c2c(F)cccc2nc(CSc2ncnc3[nH]cnc23)n1-c1ccccc1Cl [Compound D-015, 3-(2-Chlorophenyl)-5-fluoro-2-(9H-purin-6-ylsulfanylmethyl)-3H-quinazolin-4-one]	>480	–	65	>480	–	69	–	–	–	–	1100 ± 500	210	–	222.7 to 223.8 °C	–
O=c1c2c(Cl)cccc2nc(CSc2ncnc3[nH]cnc23)n1-c1ccccc1Cl [Compound D-025, 5-Chloro-3-(2-chlorophenyl)-2-(9H-purin-6-ylsulfanylmethyl)-3H-quinazolin-4-one]	>909	–	73	>909	–	61	–	–	–	–	320 ± 300	110	–	233.7 to 234.4 °C (dec.)	–
O=c1c2ccccc2nc(CSc2ncnc3[nH]ncc23)n1-c1ccccc1Cl [Compound D-999, 3-(2-Chlorophenyl)-2-(1H-pyrazolo[3,4-d]pyrimidin-4-ylsulfanylmethyl)-3H-quinazolin-4-one, reference compound]	2.2	–	–	2.1	–	71	–	–	–	–	75000	47000	–	–	105000
